Data set [1] addresses T1, ABCG2 (Homo sapiens, UniProt Q9UNQ0).
T1 sequence (Q9UNQ0 1-655): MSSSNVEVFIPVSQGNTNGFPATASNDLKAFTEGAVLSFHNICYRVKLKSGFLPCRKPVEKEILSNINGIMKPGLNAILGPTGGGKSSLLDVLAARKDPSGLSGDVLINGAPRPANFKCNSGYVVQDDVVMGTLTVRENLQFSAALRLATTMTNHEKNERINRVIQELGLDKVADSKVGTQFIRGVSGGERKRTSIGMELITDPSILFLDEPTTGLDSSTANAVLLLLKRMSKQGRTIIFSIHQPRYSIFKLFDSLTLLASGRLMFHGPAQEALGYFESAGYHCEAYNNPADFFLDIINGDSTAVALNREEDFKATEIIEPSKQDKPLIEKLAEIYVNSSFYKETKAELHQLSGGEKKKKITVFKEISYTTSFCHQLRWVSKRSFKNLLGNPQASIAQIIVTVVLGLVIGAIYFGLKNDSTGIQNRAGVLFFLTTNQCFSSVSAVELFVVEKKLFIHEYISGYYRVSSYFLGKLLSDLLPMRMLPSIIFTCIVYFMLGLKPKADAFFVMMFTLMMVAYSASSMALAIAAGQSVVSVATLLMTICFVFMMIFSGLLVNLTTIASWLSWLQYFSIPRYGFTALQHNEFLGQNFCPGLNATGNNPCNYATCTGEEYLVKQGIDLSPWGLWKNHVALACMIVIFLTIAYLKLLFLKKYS
Description: cell-based. As to conditions: 0.5 uM Hoechst 33342 substrate, 2 h, 37 °C; read-out: IC50 for transport inhibition in WT. More on the design: full-length ABCG2-WT in MEF cells; species or system Abcg2-KO MEFs expressing human ABCG2-WT; Inhibition of ABCG2-mediated Hoechst 33342 efflux; intracellular Hoechst 33342 fluorescence accumulation, normalized to vector control. How it is done:
The intracellular accumulation of fluorescent Hoechst 33342, pheophorbide a, chlorin e6, and purpurin 18, ABCG2 substrates, was used to determine the function of ABCG2. […] Thereafter, the medium was removed, and cells were washed twice with 200 μL ice-cold PBS and the fluorescence of Hoechst 33342 was then quantitatively determined with a Synergy H4 microplate reader (BioTek, Winooski, VT, USA) at an excitation wavelength of 355 nm and an emission wavelength of 460 nm. The accumulation of Hoechst 33342 was normalized to protein concentration as determined using the BCA Protein Assay Kit (Pierce, Rockford, IL, USA). The data were normalized by the proportion accumulated relative (%) to vector control. For the time-dependent Hoechst 33342 accumulation assay, 10 μM Hoechst 33342 was treated for different time periods (0.5, 1, 1.5, 2, 5, 10, 20, 30, 60, and 90 min). Relative intracellular Hoechst 33342 levels in the MEFs were normalized to vector control at 90 min. For the other fluorescent substrate accumulation assay, 0.5 μM pheophorbide a, 5 μM chlorin e6, or 5 μM purpurin 18 were treated for 1 h at 37 °C in the dark. The intracellular accumulation of pheophorbide a, purpurin 18, or chlorin e6 was measured at an excitation wavelength of 405 nm and an emission wavelength of 667 nm. […] Thereafter, the medium was removed and cells were washed twice with 1 mL ice-cold PBS. […] The total radioactivity was measured by liqu Apparent EC50 and IC50 values were calculated from dose-response data using nonlinear regression analysis. All experiments were independently repeated at least three times. […] Non-polar residues are grey, polar residues are green, and acidic residues are red.

Data set [2] concerns the target T1, ABCG2. In words: isothermal shift assay on membranes; Hoechst […] transport inhibition; 5D3 shift; disulfide crosslinking. It is filed as cell-based. On the set-up: full-length ABCG2-WT in membrane vesicles / MEF cells.
Data set [3] addresses T1, ABCG2. In words: cell-based. More on the design: full-length ABCG2-WT in MEF cells; species or system MEF (mouse embryonic fibroblasts) expressing human ABCG2-WT; Inhibition of ABCG2-mediated Hoechst 33342 transport; intracellular Hoechst 33342 fluorescence accumulation. The note with it: ABCG2-WT, 0.5 uM Hoechst 33342; read-out: Hoechst 33342 transport inhibition IC50. How it is done: The intracellular accumulation of fluorescent Hoechst 33342, pheophorbide a, chlorin e6, and purpurin 18, ABCG2 substrates, was used to determine the function of ABCG2. For Hoechst 33342 accumulation assay, MEFs were seeded into a 96-well black clear bottom plate (Corning #3603) at 20,000 cells/well and 0.5 μM Hoechst 33342, and either [compound left out] or the test inhibitor (0.002–10 μM) were added to the culture medium followed by incubation for 2 h at 37 °C in the dark. Thereafter, the medium was removed, and cells were washed twice with 200 μL ice-cold PBS and the fluorescence of Hoechst 33342 was then quantitatively determined with a Synergy H4 microplate reader (BioTek, Winooski, VT, USA) at an excitation wavelength of 355 nm and an emission wavelength of 460 nm. The accumulation of Hoechst 33342 was normalized to protein concentration as determined using the BCA Protein Assay Kit (Pierce, Rockford, IL, USA). […] The intracellular accumulation of pheophorbide a, purpurin 18, or chlorin e6 was measured at an excitation wavelength of 405 nm and an emission wavelength of 667 nm. […] The total radioactivity was measured by liqu Fig. 4 N436A substitution affects inhibitor interaction. a–d Representative snapshots from MDS of tariquidar interacting with ABCG2. a ABCG2-WT with residues within 4 Å of tariquidar are in surface representation. […]

Data set [4] has as its target T1, ABCG2. Format: cell-based. On the set-up: full-length ABCG2-WT in membrane vesicles / MEF cells.

Read-outs that look alike come from different tables or passages of the source.

On to `CS(=O)(=O)CCNCc1ccc(-c2ccc3ncnc(Nc4ccc(OCc5cccc(F)c5)c(Cl)c4)c3c2)o1` [lapatinib], for which the IC50 at ABCG2 [1] came to 50 nM. In addition, the “isothermal shift assay on membranes; Hoechst 33342 transport inhibition; 5D3 shi” value at ABCG2 [2] is “ABCG2 inhibitors, Ko143, tariquidar, and lapatinib, strongly and dose-dependently thermally stabilized ABCG2-WT”.

Turning to `COc1cc2c(cc1OC)CN(CCc1ccc(NC(=O)c3cc(OC)c(OC)cc3NC(=O)c3cnc4ccccc4c3)cc1)CC2` [tariquidar], the IC50 at ABCG2 [3] was 80 nM. On ABCG2 [4], the “isothermal shift assay on membranes; Hoechst 33342 transport inhibition; 5D3 shi” value was “ABCG2 inhibitors, Ko143, tariquidar, and lapatinib, strongly and dose-dependently thermally stabilized ABCG2-WT”.
